From patent US11998515B1, “Enhancement of curcumin plasma levels using eucalyptol co-administration” (KING FAISAL UNIVERSITY, priority 2023, dated 2024) come the findings set out here.

This data set in a line: Curcumin concentration in blood of rats after ten days of once-daily oral dosing, determined by HPLC/DAD. It counts as in vivo. As for the experimental part:
This experiment involved the use of 6 groups of rats (n=6):
Group 1: is the control group, where the animals received a solution of 0.5% carboxy methyl cellulose (CMC) in normal saline (formulation vehicle) once daily orally for ten days.
Group 2: Rats were given Eucalyptol (20 mg/kg) solubilized in 0.5% carboxy methyl cellulose (CMC) in normal saline once a day orally for ten days.
Group 3: Rats were administered curcumin (10 mg/kg) solubilized in 0.5% carboxy methyl cellulose (CMC) in normal saline once daily orally for ten days.
Groups 4, 5 and 6: Rats were given combinations of curcumin (10 mg/kg) with Eucalyptol (5 mg/kg, group 4), (10 mg/kg group 5), and (20 mg/kg, group 6), solubilized in 0.5% carboxy methyl cellulose (CMC) in normal saline orally once daily for ten days.
After the last dose on day 10, blood samples were withdrawn from animals after 0.5, 1, 2, 4, 6, 12 and 24 hours, and HPLC/DAD techniques determined the concentrations of curcumin.

Consider `COc1cc(/C=C/C(=O)CC(=O)/C=C/c2ccc(O)c(OC)c2)ccc1O` [curcumin], for which the “time after administration at which curcumin concentration increased in serum” value (after last dose on day 10, curcumin 10 mg/kg alone) stood at 1 h. Also, the “time after administration at which curcumin concentration reached the maximum concentration in serum” value (after last dose on day 10, curcumin 10 mg/kg alone (group 3)) is 6 h.
